The source of these data is patent US9161922B2, “Amine oxidase inhibitors” (Case Western Reserve University, priority 2005, dated 2015).

The term IC50 denotes the concentration at which inhibition is half-maximal. By IC75 is commonly meant the concentration at which the effect reaches the 75% level. Higher therefore signals a need for much substance.

Molecules are shown by their SMILES. Where two headings read alike, the source gives them in different places.

What all share (assay type): biochemical
For assay [1], the target named is bovine plasma amine oxidase (BPAO) (Bos taurus (Bovine), UniProt Q29437). Put plainly: Inactivation of bovine plasma amine oxidase (benzylamine oxidation rate, absorbance at 250 nm). The method, then: The rate of oxidation of benzylamine to benzaldehyde was measured by recording the increase in absorbance at 250 nm for 1 minute and compared to the rate of benzylamine oxidation in a companion control solution of enzyme without inhibitor. The concentration of active BPAO was estimated from the rate of benzylamine oxidation. Inhibitory potency values (IC50 values) and partition values for inactivation of BPAO were measured at various times as in indicated in the Tables. IC50 values for lysyl oxidase (LO), arthrobacter globoformis amine oxidase (AGAO) and pichia pastoris lysyl oxidase (PPLO) were also measured in a similar manner.
bovine plasma amine oxidase (BPAO), sequence (Q29437 17-762): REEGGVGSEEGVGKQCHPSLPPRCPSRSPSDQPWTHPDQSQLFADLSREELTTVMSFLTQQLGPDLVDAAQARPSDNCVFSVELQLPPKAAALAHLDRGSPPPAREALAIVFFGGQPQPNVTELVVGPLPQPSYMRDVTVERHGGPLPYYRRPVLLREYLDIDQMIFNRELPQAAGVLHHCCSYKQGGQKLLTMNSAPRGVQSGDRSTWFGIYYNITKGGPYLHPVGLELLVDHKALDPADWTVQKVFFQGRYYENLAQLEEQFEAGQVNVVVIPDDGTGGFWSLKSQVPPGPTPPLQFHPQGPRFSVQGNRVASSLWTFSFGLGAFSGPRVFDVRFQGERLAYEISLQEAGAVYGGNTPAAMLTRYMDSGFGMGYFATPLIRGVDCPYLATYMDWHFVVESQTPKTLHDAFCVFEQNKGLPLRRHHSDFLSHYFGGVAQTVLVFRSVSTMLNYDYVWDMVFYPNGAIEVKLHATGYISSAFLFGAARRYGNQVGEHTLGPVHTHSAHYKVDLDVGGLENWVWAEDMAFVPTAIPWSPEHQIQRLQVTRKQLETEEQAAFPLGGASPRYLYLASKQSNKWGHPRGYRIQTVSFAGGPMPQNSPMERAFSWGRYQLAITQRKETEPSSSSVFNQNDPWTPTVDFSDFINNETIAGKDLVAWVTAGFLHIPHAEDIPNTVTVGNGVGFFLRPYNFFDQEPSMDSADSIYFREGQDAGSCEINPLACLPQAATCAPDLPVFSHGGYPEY

For assay [2], the target named is arthrobacter globiformis amine oxidase (AGAO) (Arthrobacter globiformis, UniProt P46881). Put plainly: Arthrobacter globiformis amine oxidase inhibition. The method, then:
(§1) In the following Examples, 0.9 mL aliquots of a solution of candidate inhibitor in 100 mM potassium phosphate buffer, pH 7.2 was mixed bovine plasma amine oxidase (0.1 mL, about […]) and incubated at 30° C. aerobically. Aliquots (0.1 mL) were periodically withdrawn using disposable calibrated Drummond micropipettes and diluted with 1.0 mL of benzylamine (5 mM in 50 mM sodium phosphate buffer, pH 7.2) in a 1 cm quartz cuvette (1.5 mL volume). The rate of oxidation of benzylamine to benzaldehyde was measured by recording the increase in absorbance at 250 nm for 1 minute and compared to the rate of benzylamine oxidation in a companion control solution of enzyme without inhibitor. The concentration of active BPAO was estimated from the rate of benzylamine oxidation. Inhibitory potency values (IC50 values) and partition values for inactivation of BPAO were measured at various times as in indicated in the Tables. IC50 values for lysyl oxidase (LO), arthrobacter globoformis amine oxidase (AGAO) and pichia pastoris lysyl oxidase (PPLO) were also measured in a similar manner.

The next assay concerns the target lysyl oxidase (LO) (Homo sapiens (Human), UniProt P28300). The assay can be described thus: Lysyl oxidase inhibition. The note with it: for IC75: 20 min, assay performed at Boston University; for IC50 (BPAO)/IC75(LO): ratio BPAO over LO. The method, then:
as §1

The target of assay [3] is pichia pastoris lysyl oxidase (PPLO) (Komagataella pastoris (Yeast) (Pichia pastoris), UniProt Q96X16). Put plainly: Pichia pastoris lysyl oxidase inhibition. The note with it: 30 min. The method, then: as §1
pichia pastoris lysyl oxidase (PPLO), sequence (Q96X16 entry or part of it): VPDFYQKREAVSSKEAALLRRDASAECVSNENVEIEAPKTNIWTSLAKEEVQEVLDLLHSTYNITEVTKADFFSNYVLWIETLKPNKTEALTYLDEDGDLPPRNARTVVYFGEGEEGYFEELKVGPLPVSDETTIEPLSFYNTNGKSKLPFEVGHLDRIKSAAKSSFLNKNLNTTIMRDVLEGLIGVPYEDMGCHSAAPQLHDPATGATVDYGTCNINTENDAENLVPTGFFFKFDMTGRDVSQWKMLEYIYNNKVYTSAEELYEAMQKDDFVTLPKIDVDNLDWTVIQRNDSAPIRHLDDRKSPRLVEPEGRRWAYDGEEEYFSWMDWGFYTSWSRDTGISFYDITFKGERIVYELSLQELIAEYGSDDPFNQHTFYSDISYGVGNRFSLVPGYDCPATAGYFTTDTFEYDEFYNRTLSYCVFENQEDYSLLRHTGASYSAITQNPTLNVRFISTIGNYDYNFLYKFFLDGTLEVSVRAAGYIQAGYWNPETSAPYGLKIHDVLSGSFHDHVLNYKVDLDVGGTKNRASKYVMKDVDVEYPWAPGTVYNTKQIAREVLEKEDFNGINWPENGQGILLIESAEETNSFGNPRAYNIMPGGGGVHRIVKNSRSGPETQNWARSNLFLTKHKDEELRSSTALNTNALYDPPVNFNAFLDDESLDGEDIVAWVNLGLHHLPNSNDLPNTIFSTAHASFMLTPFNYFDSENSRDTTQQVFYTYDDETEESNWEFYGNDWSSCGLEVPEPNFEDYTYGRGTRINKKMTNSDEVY

lysyl oxidase (LO), sequence (P28300 169-417, species assumed): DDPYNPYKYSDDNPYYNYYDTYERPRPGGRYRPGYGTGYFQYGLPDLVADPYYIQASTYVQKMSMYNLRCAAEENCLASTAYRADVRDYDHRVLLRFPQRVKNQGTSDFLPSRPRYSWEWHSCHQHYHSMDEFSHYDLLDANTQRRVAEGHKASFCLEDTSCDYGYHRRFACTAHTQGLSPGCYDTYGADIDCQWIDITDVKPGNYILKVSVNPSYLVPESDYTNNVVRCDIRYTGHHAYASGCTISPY

`CCOC(=O)CNC(=O)CNC(=O)C(N)CC#CCN` (stereo not shown) [R = NHCH2CONHCH2COOEt]: the results for the IC50 in assay [1] and in assay [2] (30 min) were 90 µM and 3500 µM, respectively. Further, the IC75 at lysyl oxidase (LO) was 650 µM. The “IC50 (BPAO)/IC75(LO)” value at lysyl oxidase (LO) was 0.14.

In assay [1], `NCC#CCC(N)C(=O)NCCc1ccccc1` (stereo not shown) [R = NHCH2CH2Ph] had an IC50 of 1800 µM. The same compound registered an IC50 in assay [2] (30 min) of 250 µM. Also, at lysyl oxidase (LO), it took 450 µM to reach the 75% level (IC75) and the “IC50 (BPAO)/IC75(LO)” value stood at 1.11.

On to `CCN(CC)C(=O)C(N)CC#CCN` (stereo not shown) [R = NEt2], for which the IC50 in assay [1] came to 10000 µM; in assay [2] (determined on the basis of reversible competitive inhibition, read-out: IC50 (30 min) AGAO), 7 µM; in assay [3], 5000 µM. On lysyl oxidase (LO), the 75% effect level (IC75) was put at 250 µM. The “IC50 (BPAO)/IC75(LO)” value on lysyl oxidase (LO) is on record as 40.
